Literature values in patent US20230255953A1, “USE OF ROLUPERIDONE IN PREVENTING RELAPSE IN SCHIZOPHRENIA PATIENTS” (Minerva Neurosciences, Inc., priority 2022, published 2023).

How the values were obtained:
cholinergic receptors = details: background statement; cited from earlier work
histaminergic receptors = details: background statement; cited from earlier work

**Q.** Which results are given for “1H-Isoindol-1-one,2-[ [1-[2-(4-fluorophenyl)-2-oxoethyl]-4-piperidinyl]methyl]-2,3-dihydro-, hydrochloride, hydrate (1:1:2) [Roluperidone]”?
**A.** Affinity (cholinergic receptors): very low or no affinity; Affinity (histaminergic receptors): very low or no affinity
